{
  "source": "paper PMC7889647",
  "about": "(Basic & clinical pharmacology & toxicology, 2020)",
  "target": "hERG1a (human ether-a-go-go-related gene potassium channel, Kv11.1) (Homo sapiens, UniProt Q12809)",
  "sequence (Q12809 whole entry)": "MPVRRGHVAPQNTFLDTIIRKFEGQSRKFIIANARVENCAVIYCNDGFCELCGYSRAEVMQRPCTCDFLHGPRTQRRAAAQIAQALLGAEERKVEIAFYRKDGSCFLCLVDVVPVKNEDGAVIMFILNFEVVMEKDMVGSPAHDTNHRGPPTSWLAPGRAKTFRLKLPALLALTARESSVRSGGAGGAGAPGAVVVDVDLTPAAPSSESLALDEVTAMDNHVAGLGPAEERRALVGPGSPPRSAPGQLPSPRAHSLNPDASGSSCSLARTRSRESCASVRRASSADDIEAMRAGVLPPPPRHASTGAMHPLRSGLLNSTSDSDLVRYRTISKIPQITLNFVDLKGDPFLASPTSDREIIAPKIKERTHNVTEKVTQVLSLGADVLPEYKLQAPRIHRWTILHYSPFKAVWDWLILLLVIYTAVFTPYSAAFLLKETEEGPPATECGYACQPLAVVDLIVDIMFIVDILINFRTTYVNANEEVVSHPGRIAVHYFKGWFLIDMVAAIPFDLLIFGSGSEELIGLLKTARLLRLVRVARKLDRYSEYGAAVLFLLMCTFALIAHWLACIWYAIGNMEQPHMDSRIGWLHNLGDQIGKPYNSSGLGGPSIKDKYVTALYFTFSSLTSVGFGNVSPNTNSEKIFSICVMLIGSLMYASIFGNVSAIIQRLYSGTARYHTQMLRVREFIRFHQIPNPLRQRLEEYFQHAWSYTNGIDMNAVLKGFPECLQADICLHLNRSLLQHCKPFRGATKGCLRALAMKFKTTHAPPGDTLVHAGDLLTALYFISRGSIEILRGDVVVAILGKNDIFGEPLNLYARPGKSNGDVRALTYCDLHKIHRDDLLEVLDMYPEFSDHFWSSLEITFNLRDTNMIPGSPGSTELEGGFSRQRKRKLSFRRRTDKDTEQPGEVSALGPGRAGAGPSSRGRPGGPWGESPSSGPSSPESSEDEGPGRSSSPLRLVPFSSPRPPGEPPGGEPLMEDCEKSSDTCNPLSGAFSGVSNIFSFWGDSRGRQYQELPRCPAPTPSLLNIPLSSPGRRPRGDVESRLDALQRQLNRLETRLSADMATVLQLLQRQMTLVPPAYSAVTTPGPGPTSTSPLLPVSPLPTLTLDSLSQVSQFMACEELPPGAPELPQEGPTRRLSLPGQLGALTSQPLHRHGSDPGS",
  "assay_type": "cell-based",
  "data": [
    {"smiles": "N#Cc1ccc(C(c2ccc(C#N)cc2)n2cncn2)cc1", "note": "[letrozole]", "values": [
      {"measurement": "IC50", "value": 373, "unit": "nM"}
    ]}
  ]
}
